According to US20030104079A1, “Skin tissue regeneration promoters comprising ginsenoside Rb1” (Japan Science and Technology Corporation, Japan, priority 2000, published 2003):

Key:
spinal cord injury = conditions: continuous intravenous administration 60 pg/day; cited from earlier work
incised wound of skin = experiment: Incised wound healing by intravenous infusion; type: in vivo, Wistar rats; conditions: vs physiological saline
Description: In order to investigate the effects of low dosages, low doses or low concentrations of ginsenoside Rb1 on regeneration and/or reconstruction of skin tissue, the effect(s) of continuous intravenous infusion of ginsenoside Rb1 on incised wound of skin which enabled us to observe easily regeneration phenomena of tissues or cells was examined. Male, Wistar rats (body weight about 300 g) were used. The animals were bred in a room with a 12:12 hour light-dark cycle, and water and feed were supplied ad libitum. Incised wound with length about 3 cm was made in the dorsal region of animals under inhalation anesthesia, and sutured with nylon thread. One hour later, ginsenoside Rb1 (60 μg) dissolved in physiological saline was once intravenously injected. Thereafter continuous intravenous infusion of ginsenoside Rb1 (60 μg/day) was performed for 7 days by using an Alza osmotic minipump.
An equal amount of physiological saline was administered intravenously in the control animals, for which the same […] was made and sutured with nylon thread.
On day 2 after finishing continuous intravenous administration of ginsenoside Rb1 or physiological saline, the animals were anesthetized with pentobarbital and perfused transcardially with 0.1 M phosphate buffer containing 4% paraformaldehyde. […]

cuttings of pothos = experiment: Hydroponic culture of cuttings of pothos (rooting); design: species or system pothos (Epipremunum aureum, golden pothos); conditions: 100 fg/ml in water
Description: Next, we have examined whether ginsenosides, especially ginsenoside Rb1, can promote generation, regeneration or reconstruction of not only skin tissue or mouth mucosal tissue but also plant tissues. For that purpose, one of foliage plants, pothos is selected. Six cuttings resembled with each other from the parent plant of pothos in the room of one of the inventors (Tanaka) were collected. Among them, 3 cuttings were cultured by hydroponics with the use of only water and the remaining three were cultured in water containing ginsenoside Rb1 at a concentration of 100 fg/ml. FIG. 9 is a photograph in place of drawing.
Then, we have further continued cultivation of the above cuttings with hydroponics and on day 22, again photographs were taken. FIG. 10 is a photograph in place of drawing. Left photograph in FIG. 10 is the cuttings of pothos cultured with only water for 22 days and right photograph in FIG. 10 is the cuttings cultured with water containing the low concentration of ginsenoside Rb1 (100 fg/ml). Waters with or without containing ginsenoside Rb1 for hydroponics were exchanged once in a week. We have further made observation of rooting region on day 27.
Next, we have examined whether a crude saponin fraction of ginseng, like ginsenoside Rb1 at low concentrations, can promote, generation, regeneration or reconstruction of the cutting of pothos. For that purpose, two cuttings resembled with each other from the parent plant of pothos were collected. Among them, the one cutting was cultured with only water and the remaining one was cultured in water containing the crude saponin fraction of ginseng at a concentration of 1450 fg/ml. FIG. 11 is a photograph in place of drawing. Left photograph in FIG. 11 is the cutting cultured with only water and right photograph in FIG. 11 is the cutting cultured with water containing the crude saponin fraction of ginseng (1450 fg/ml). […]

## CC(C)=CCC[C@](C)(O[C@@H]1O[C@H](CO[C@@H]2O[C@H](CO)[C@@H](O)[C@H](O)[C@H]2O)[C@@H](O)[C@H](O)[C@H]1O)[C@H]1CC[C@]2(C)[C@@H]1[C@H](O)C[C@@H]1[C@@]3(C)CC[C@H](O[C@@H]4O[C@H](CO)[C@@H](O)[C@H](O)[C@H]4O[C@@H]4O[C@H](CO)[C@@H](O)[C@H](O)[C@H]4O)C(C)(C)[C@@H]3CC[C@]12C [ginsenoside Rb1]
Spinal cord injury
  standing up of bed-ridden rats with spinal cord injury: could stand up bed-ridden rats
Incised wound of skin; 60 μg/day continuous iv for 7 days after one iv infusion, two days after end of infusion
  scar or granulation formation in incised wound (HE histology, FIG. 1): scar or granulation formation was obviously little
Incised wound of skin; 60 μg/day continuous iv for 7 days
  regeneration and reconstruction of epidermis, dermis and subcutaneous tissue after incised wound: regenerated, reconstructed or recovered to the nearly normal condition
Cuttings of pothos; 22 days
  generation or regeneration of roots (FIG. 10): many roots were generated or regenerated
Cuttings of pothos; day 13, vs water alone
  growth of root (FIG. 9): growth of root is promoted
Cuttings of pothos; day 27, none on cuttings in water only
  secondary rooting arising from the primary rooting regions: clearly observed on all three cuttings
